From ChEMBL document CHEMBL3046798 (J Agric Food Chem, 2010)
Values after ≈ are worked out from the molar mass of the structure shown.

How the values were obtained:
[1] = Drug absorption in Solanum lycopersicum (tomato) roots measured 30 days post dose following field application at 1 and 2 kg of active ingredient/hectare
[2] = Drug level in Solanum lycopersicum (tomato) green seeds measured 90 days post dose following field application at 1 kg of active ingredient/hectare
Rotylenchulus reniformis [3] = test: Nematicidal activity against Rotylenchulus reniformis (reniform nematode) infested tomato plants plots assessed as reduction in nematode population measured 110 days post dose following field application at 1 to 2 kg of active ingredient/hectare; type: functional; set-up: scale not given: the % may be the effect or the level left
[4] = Drug level in Solanum lycopersicum (tomato) green seeds measured 100 days post dose following field application at 2 kg of active ingredient/hectare
[5] = Cmax in Cicer arietinum (chickpea) shoots measured 15 days post dose following field application at 1 and 2 kg of active ingredient/hectare; type: ADME, Shoot; conditions: other: field application
[6] = Toxicity in Rattus norvegicus (rat); conditions: in vivo
[7] = Cmax in Solanum lycopersicum (tomato) shoots measured 30 days post dose following field application at 1 and 2 kg of active ingredient/hectare; type: ADME, Shoot; conditions: other: field application
Meloidogyne incognita [8] = test: Nematicidal activity against root-knot nematode Meloidogyne incognita J2 (root-knot nematode) infested chickpea plants plots assessed as reduction in nematode population measured 110 days post dose following field application at 1 to 2 kg of active ingredient/hectare; type: functional; set-up: scale not given: the % may be the effect or the level left
Root [9] = test: Drug absorption in Solanum lycopersicum (tomato) roots assessed as mean drug level measured post dose following field application at 1 and 2 kg of active ingredient/hectare
[10] = Drug level in Solanum lycopersicum (tomato) green seeds measured 120 days post dose following field application at 2 kg of active ingredient/hectare
[11] = Drug level in Cicer arietinum (chickpea) green seeds measured 90 days post dose following field application at 2 kg of active ingredient/hectare
[12] = Drug level in Solanum lycopersicum (tomato) green seeds measured 120 days post dose following field application at 1 kg of active ingredient/hectare
[13] = Drug level in Solanum lycopersicum (tomato) green seeds measured 100 days post dose following field application at 1 kg of active ingredient/hectare
[14] = Drug level in Cicer arietinum (chickpea) green seeds measured 100 days post dose following field application at 1 kg of active ingredient/hectare
[15] = Drug level in Cicer arietinum (chickpea) green seeds measured 100 days post dose following field application at 2 kg of active ingredient/hectare
Rotylenchulus reniformis [16] = test: Nematicidal activity against Rotylenchulus reniformis (reniform nematode) infested in tomato plants plots assessed as reduction in nematode population measured 55 days post dose following field application at 1 to 2 kg of active ingredient/hectare; type: functional; set-up: scale not given: the % may be the effect or the level left
Rotylenchulus reniformis [17] = test: Nematicidal activity against Rotylenchulus reniformis (reniform nematode) infested chickpea plants plots assessed as reduction in nematode population measured 55 days post dose following field application at 1 to 2 kg of active ingredient/hectare; type: functional; set-up: scale not given: the % may be the effect or the level left
[18] = Drug level in Cicer arietinum (chickpea) green seeds measured 90 days post dose following field application at 1 kg of active ingredient/hectare
Rotylenchulus reniformis [19] = test: Nematicidal activity against Rotylenchulus reniformis (reniform nematode) infested chickpea plants plots assessed as reduction in nematode population measured 110 days post dose following field application at 1 to 2 kg of active ingredient/hectare; type: functional; set-up: scale not given: the % may be the effect or the level left
Meloidogyne incognita [20] = test: Nematicidal activity against root-knot nematode Meloidogyne incognita J2 (root-knot nematode) infested tomato plants plots assessed as reduction in nematode population measured 110 days post dose following field application at 1 to 2 kg of active ingredient/hectare; type: functional; set-up: scale not given: the % may be the effect or the level left
Meloidogyne incognita [21] = test: Nematicidal activity against root-knot nematode Meloidogyne incognita J2 (root-knot nematode) infested tomato plants plots assessed as reduction in nematode population measured 55 days post dose following field application at 1 to 2 kg of active ingredient/hectare; type: functional; set-up: scale not given: the % may be the effect or the level left
Root [22] = test: Drug translocation in Solanum lycopersicum (tomato) roots assessed as mean drug level measured post dose following field application at 1 and 2 kg of active ingredient/hectare
Meloidogyne incognita [23] = test: Nematicidal activity against root-knot nematode Meloidogyne incognita J2 (root-knot nematode) infested chickpea plants plots assessed as reduction in nematode population measured 55 days post dose following field application at 1 to 2 kg of active ingredient/hectare; type: functional; set-up: scale not given: the % may be the effect or the level left
[24] = Drug level in Solanum lycopersicum (tomato) green seeds measured 90 days post dose following field application at 2 kg of active ingredient/hectare
[25] = Drug level in Cicer arietinum (chickpea) roots measured 15 days post dose following field application at 1 and 2 kg of active ingredient/hectare; type: ADME, Root; conditions: other: field application, read-out: Drug uptake
in vivo [26] = conditions: solanum lycopersicum
[27] = Cmax in Cicer arietinum (chickpea) shoots measured 45 days post dose following field application at 1 and 2 kg of active ingredient/hectare; type: ADME, Shoot; conditions: other: field application
[28] = Drug level in Solanum lycopersicum (tomato) roots measured 15 days post dose following field application at 1 and 2 kg of active ingredient/hectare; type: ADME, Root; conditions: other: field application, read-out: Drug uptake
[29] = Drug level in Cicer arietinum (chickpea) green seeds measured 120 days post dose following field application at 2 kg of active ingredient/hectare
[30] = Drug level in Cicer arietinum (chickpea) green seeds measured 120 days post dose following field application at 1 kg of active ingredient/hectare
in vivo [31] = conditions: cicer arietinum, Shoot
[32] = Drug absorption in Cicer arietinum (chickpea) roots measured 45 days post dose following field application at 1 and 2 kg of active ingredient/hectare; conditions: Root

CCOP(=O)(SC(C)CC)SC(C)CC (stereo unspecified) [CADUSAFOS]
concentration at 720 h ([1]; roots, other: field application): 3230 ng/g
concentration at 2160 h ([2]; green seeds): 21 ng/g
Activity (Rotylenchulus reniformis [3]): 83%
concentration at 2400 h [4]: 10 ng/g
Cmax [5]: 340 ng/g
LD50 [6]: 37.1 mg/kg
Cmax [7]: 440 ng/g
Activity (Meloidogyne incognita [8]): 79%
Drug absorption (Root [9]): 2.18 µg/g
concentration at 2880 h [10]: 3 ng/g
concentration at 2160 h ([11]; green seeds): 16 ng/g
concentration at 2880 h [12]: 2 ng/g
concentration at 2400 h [13]: 6 ng/g
concentration at 2400 h ([14]; green seeds): 3 ng/g
concentration at 2400 h ([15]; green seeds): 5 ng/g
Activity (Rotylenchulus reniformis [16]): 39%
Activity (Rotylenchulus reniformis [17]): 49%
concentration at 2160 h ([18]; green seeds): 9 ng/g
Activity (Rotylenchulus reniformis [19]): 45%
Activity (Meloidogyne incognita [20]): 60%
solubility (physchem; buffer): 0.248 mg/mL (≈ 917 µM)
Activity (Meloidogyne incognita [21]): 57%
Drug transport (Root [22]): 0.25 µg/g
Activity (Meloidogyne incognita [23]): 66%
concentration at 2160 h ([24]; green seeds): 40 ng/g

CNC(=O)Oc1cccc2c1OC(C)(C)C2 [CARBOFURAN]
LD50 [6]: 8 mg/kg
solubility (physchem; buffer): 0.7 mg/mL (≈ 3160 µM)

CCCCN(CCCC)SN(C)C(=O)Oc1cccc2c1OC(C)(C)C2 [CARBOSULFAN]
concentration at 360 h [25]: 530 ng/g
Cmax at 1080 h (in vivo [26]; shoots, other: field application): 31600 ng/g
Activity (Rotylenchulus reniformis [3]): 59%
LD50 [6]: 209 mg/kg
Activity (Meloidogyne incognita [8]): 15%
Drug absorption (Root [9]): 0.36 µg/g
Activity (Rotylenchulus reniformis [16]): 23%
Activity (Rotylenchulus reniformis [17]): 37%
Activity (Rotylenchulus reniformis [19]): 23%
Activity (Meloidogyne incognita [20]): 45%
Activity (Meloidogyne incognita [21]): 52%
Drug transport (Root [22]): 9.52 µg/g
Cmax [27]: 24800 ng/g
Activity (Meloidogyne incognita [23]): 33%

CCOP(=O)(NC(C)C)Oc1ccc(SC)c(C)c1 (stereo unspecified) [PHENAMIPHOS]
LD50 [6]: 16 mg/kg

CCOP(=S)(OCC)SCSCC [PHORATE]
concentration at 360 h [25]: 2310 ng/g
concentration at 2160 h ([2]; green seeds): 14 ng/g
Activity (Rotylenchulus reniformis [3]): 45%
concentration at 2400 h [4]: 14 ng/g
LD50 [6]: 3.2 mg/kg
concentration at 360 h [28]: 1690 ng/g
Activity (Meloidogyne incognita [8]): 1%
Drug absorption (Root [9]): 1.45 µg/g
concentration at 2880 h [10]: 4 ng/g
concentration at 2880 h [29]: 6 ng/g
concentration at 2160 h ([11]; green seeds): 56 ng/g
concentration at 2880 h [12]: 3 ng/g
concentration at 2400 h [13]: 10 ng/g
concentration at 2400 h ([14]; green seeds): 8 ng/g
concentration at 2400 h ([15]; green seeds): 19 ng/g
Activity (Rotylenchulus reniformis [16]): 36%
Activity (Rotylenchulus reniformis [17]): 28%
concentration at 2160 h ([18]; green seeds): 20 ng/g
Activity (Rotylenchulus reniformis [19]): 0.9%
Activity (Meloidogyne incognita [20]): 17%
solubility (physchem; water): 0.05 mg/mL (≈ 192 µM)
Activity (Meloidogyne incognita [21]): 45%
Drug transport (Root [22]): 0.41 µg/g
Cmax [27]: 680 ng/g
Activity (Meloidogyne incognita [23]): 44%
concentration at 2160 h ([24]; green seeds): 22 ng/g
concentration at 2880 h [30]: 3 ng/g

CCOP(=S)(OCC)Oc1ncn(-c2ccccc2)n1 [TRIAZOPHOS]
concentration at 720 h ([1]; Root): 7220 ng/g
Cmax at 1080 h (in vivo [26]; Shoot): 630 ng/g
concentration at 2160 h [2]: 2 ng/g
Activity (Rotylenchulus reniformis [3]): 31%
Cmax at 720 h (in vivo [31]): 250 ng/g
LD50 [6]: 68 mg/kg
Activity (Meloidogyne incognita [8]): 44%
Drug absorption (Root [9]; Root): 2.77 µg/g
concentration at 2160 h [11]: 18 ng/g
concentration at 2400 h [14]: 4 ng/g
concentration at 2400 h [15]: 7 ng/g
Activity (Rotylenchulus reniformis [16]): 30%
Activity (Rotylenchulus reniformis [17]): 38%
concentration at 2160 h [18]: 11 ng/g
Activity (Rotylenchulus reniformis [19]): 30%
Activity (Meloidogyne incognita [20]): 38%
solubility (physchem; buffer): 0.03 mg/mL (≈ 95.7 µM)
concentration at 1080 h [32]: 1720 ng/g
Activity (Meloidogyne incognita [21]): 55%
Drug transport (Root [22]; Root): 0.14 µg/g
Activity (Meloidogyne incognita [23]): 63%
concentration at 2160 h [24]: 4 ng/g
